Like-named read-outs stand apart in the source and are kept apart here.
Legend:
HBV = conditions: PCT application WO2019076310A1; cited from earlier work
[1] = Stability test (high temperature, high humidity and light tests); format: physicochemical
Description: High temperature test: An appropriate amount of the test product was added into a flat weighing bottle and spread into a thin layer with thickness ≤5 mm. The bottle was placed at 60° C. or 40° C. for 10 days. Samples were taken at the 5th and 10th days to check the appearance, related substances and purity.
High humidity test: An appropriate amount of the test product was added into a flat weighing bottle and spread into a thin layer with thickness 5 mm. The bottle was placed at 25° C. and a relative humidity of 90%±5% for 10 days. Samples were taken at the 5th and 10th days to check the appearance, related substances and purity. At the same time, the weight of the test product before and after the test were accurately weighed to investigate the moisture absorption and deliquescence performance of the test product. Light test: An appropriate amount of the test product was added into a flat weighing bottle and spread into a thin layer with thickness ≤5 mm. The bottle was opened and placed in a light box (with UV) at the illuminance 4500±500 lx, UV light≥0.7 w/m^2 for 10 days. Samples were taken at the 5th and 10th days to check the appearance, related substances and purity.

[2] = Pharmacokinetic evaluation of experimental animals after oral administration; format: in vivo, Beagle dogs; conditions: for AUC0-t / Cmax: beagle dogs, oral via capsules, 10 mg/kg; for absorption in the body / in animals (in words): in vivo
Description: Blood samples were taken at 0.25, 0.5, 1, 2, 4, 6, 8 and 24 hours from forelimb vein after the administration, and collected in anticoagulation tube with EDTA-K2. After liquid-liquid extraction, the blood samples were quantitatively analyzed on a triple quadrupole tandem mass spectrometer using multiple reactive ion monitoring (MRM). Pharmacokinetic parameters (AUC0-t and Cmax) were calculated using a noncompartmental method by WinNonLin 6.3 software.

[3] = Experimental research on hygroscopicity; format: physicochemical; conditions: 25° C.±1° C., relative humidity 90%±2%, 24 hours
Description: A dry stoppered glass weighing bottle (outer diameter was 50 mm, height was 15 mm) was placed in a suitable constant temperature dryer (a saturated solution of ammonium chloride or ammonium sulfate was placed at the bottom, the relative humidity was within 90%±2%) at 25° C.±1° C. the day before, and the weighing bottle was precisely weighed (m1). An appropriate amount of the test product was spread flat in the above weighing bottle. The thickness of the test product was generally about 1 mm, and the weighing bottle was precisely weighed (m2). The weighing bottle was opened and placed for 24 hours under the above constant temperature and humidity conditions with the bottle cap. The weighing bottle was closed and precisely weighed (m3), and the weight gain percentage (%) was calculated. Testing method: According to Ph.

[4] = High humidity (90% RH), 25° C., 5 days
[5] = High humidity (90% RH), 25° C., 10 days
[6] = High temperature (60° C.), 5 days
[7] = High temperature (60° C.), 10 days
[8] = Light (4500±500 lx, UV light≥0.7 w/m^2), 5 days
[9] = Light (4500±500 lx, UV light≥0.7 w/m^2), 10 days

Weight gain of moisture absorption (%) [3] [%]	hygroscopicity judgment [3]	stability (in words) ([1]; high temperature, high humidity or light conditions for 10 days)	AUC0-t [2] [ng·h/mL]	Cmax [2] [ng/mL]	exposure / pharmacokinetic properties (in words) ([2]; experimental animals, oral)	Compound	HBV inhibitory activity (in words) (HBV)	Purity (%) ([1]; 0 days)	Purity (%) [1, 4] [%]	Purity (%) [1, 5] [%]	Purity (%) [1, 6] [%]	Purity (%) [1, 7] [%]	Purity (%) [1, 8] [%]	Purity (%) [1, 9] [%]	stability under high temperature (in words) ([1]; high temperature (such as 60° C.))	AUC0-t ([2]; dog, blood, read-out: AUC0-t) [ng·h/mL]	Cmax ([2]; dog, blood, read-out: Cmax) [ng/mL]	absorption in the body / in animals (in words) ([2]; dog)
–	–	–	–	–	–	COC(=O)C1=C(CN2CCN3C(=O)N(c4ccc(CCC(=O)O)cc4F)C[C@@H]3C2)NC(c2nccs2)=N[C@H]1c1ccc(F)cc1Cl [Compound having Formula (I), 3-(4-((S)-7-(((R)-6-(2-chloro-4-fluorophenyl)-5-(methoxycarbonyl)-2-(thiazol-2-yl)-3,6-dihydropyrimidin-4-yl)methyl)-3-oxohexahydroimidazo[1,5-a]pyrazine-2(3H)-yl)-3-fluorophenyl)propionic acid]	good HBV inhibitory activity	98.61	98.66	98.75	95.40	94.07	98.66	98.20	unstable	6340	3720	unsatisfactory
0.97	slightly hygroscopicity	very good	10840	6620	higher exposure	COC(=O)C1=C(CN2CCN3C(=O)N(c4ccc(CCC(=O)O)cc4F)C[C@@H]3C2)N=C(c2nccs2)N[C@H]1c1ccc(F)cc1Cl.O=S(=O)(O)O [Sulfate crystal form B of the compound having Formula (Ia)] [3-(4-((S)-7-(((R)-6-(2-chloro-4-fluorophenyl)-5-(methoxycarbonyl)-2-(thiazol-2-yl)-1,6-dihydropyrimidin-4-yl)methyl)-3-oxohexahydroimidazo[1,5-a]pyrazine-2(3H)-yl)-3-fluorophenyl)prop ionic acid sulfate crystal form B]	–	98.98	98.90	98.94	98.94	98.68	99.01	98.91	–	–	–	better absorbed

Source: patent US20240025905A1, “SALTS OF DIHYDROPYRIMIDINE DERIVATIVES, COMPLEXES AND USES THEREOF IN MEDICINE” (SUNSHINE LAKE PHARMA CO., LTD., priority 2020, published 2024)
